Experimental data from patent US20090227619A1, “Harmine derivatives, intermediates used in their preparations, preparation processes and use therefo” (priority 2003, published 2009).
Like-named read-outs stand apart in the source and are kept apart here.

Tests used:
CT-DNA [1] = assay: UV absorption spectrum method with CT-DNA; assay type: binding; details: CT-DNA 40 ug/ml, compound 20 uM, 37° C. for 2 h, OD at 260 nm
S180 sarcoma = details: S180 sarcoma; for Body weight of the animals, beginning, First time / Body weight of the animals, end, First time / Inhibition rate, First time / Weight of the tumor X ± SD, First time / Body weight of the animals, beginning, Second time / Body weight of the animals, end, Second time / Inhibition rate, Second time: ip × 10qd
NIH3T3 = assay: In vitro cytotoxicity, IC50 by MTT method, NIH3T3; assay type: cell-based; details: Mus musculus; NIH3T3 cell strain; read-out: IC50 NIH3T3
How it was run: (§1)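 MTT viability, 48 h exposure: cells 10^5/ml in RPMI1640 + 10% FBS, 37 °C/5% CO2; MTT 4 h, DMSO solubilisation, A490.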

HepG2 = assay: In vitro cytotoxicity, IC50 by MTT method, HepG2; assay type: cell-based, human; details: Homo sapiens; HepG2 cell strain; read-out: IC50 HepG2
How it was run: as §1

Kunming mice = details: single i.p.
Protocol: (§2) Five grades of dosages for each sample according to the results of the preliminary test, each dosage being 0.8 larger than the previous one
(§3) During the experiment, each sample was added a small amount of Tween-80 to facilitate dissolution after the sample was weighed, and then 0.5% CMC-Na solution was gradually added to achieve the desired concentration. The experimental volume was 0.5 ml/20 g mouse.
(§4) Single injection via intraperitoneal (i.p.) to different groups mice.
(§5) Kunming mice were divided into different groups randomly according to their sex. The medicament was intraperitoneally administered to each group of mice according to the dosage setting. After the administration of the medicaments, mice were observed continuously for the first 2 h for any gross behavioral changes and deaths. Dead animals were dissected and examined for any possible organ damage. […] Conditions of animals died within two week were recorded. After two weeks, all survived animals were sacrificed and checked macroscopically for possible damage to the heart, liver, kidneys and so on. Viscera that had substantive pathological changes were pathologically examined.

PLA-801 = assay: In vitro cytotoxicity, IC50 by MTT method, PLA-801; assay type: cell-based; details: PLA-801 cell strain; read-out: IC50 PLA-801
How it was run: as §1

Lovo = assay: In vitro cytotoxicity, IC50 by MTT method, Lovo; assay type: cell-based; details: Homo sapiens; Lovo cell strain; read-out: IC50 Lovo
How it was run: as §1

Hela = assay: In vitro cytotoxicity, IC50 by MTT method, Hela; assay type: cell-based; details: Homo sapiens; Hela cell strain; read-out: IC50 Hela
How it was run: as §1

Bel-7402 = assay: In vitro cytotoxicity, IC50 by MTT method, Bel-7402; assay type: cell-based; details: Homo sapiens, Bel-7402; Bel7402 cell strain; read-out: IC50 Bel7402
How it was run: as §1

in vivo = details: both, mouse, ip
Protocol: as §2, §3, §4, §5

BGC-823 = assay: In vitro cytotoxicity, IC50 by MTT method, BGC-823; assay type: cell-based; details: Homo sapiens, BGC-823; BGC823 cell strain; read-out: IC50 BGC823
How it was run: as §1

Lewis lung cancer = details: Lewis lung cancer; for Body weight of the animals, end, First time / Body weight of the animals, end, Second time: ip × 10qd;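 on all read-outs here: mice implanted subcutaneously in the axilla with Lewis lung tumor cells, treated starting the following day, killed roughly three weeks after implantation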
CT-DNA [2] = assay: DNA thermal denaturation, determination of ΔTm; assay type: binding; details: 20 uM compound, Tm of CT-DNA alone 61° C.
How it was run: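 CT-DNA at 15 ug/ml in PE buffer (1 mM Na2HPO4, 0.1 mM EDTA, pH 7.6), heated at 0.5° C./min from 25 to 95° C. Tm taken as hyperchromic transition mid-point; ΔTm = Tm of drug-DNA complex minus Tm of DNA alone, mean of three runs.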
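Wherever Death rate is given: acute toxicity in Kunming mice grouped by sex, one intraperitoneal dose at five graded levels in Tween-80 plus 0.5% CMC-Na, deaths monitored over two weeks.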
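Wherever MTD is given: acute toxicity in Kunming mice grouped by sex, one intraperitoneal dose at five graded levels in Tween-80 plus 0.5% CMC-Na, deaths monitored over two weeks.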

SMILES: CCCCn1c2ccccc2c2cc(C(=O)O)ncc21 [Compound 36, 9-butyl-β-carboline-3-carboxylic acid]
- Influence on the UV absorption of DNA (CT-DNA [1]): increase the UV absorption of DNA
- Body weight of the animals, beginning, First time (S180 sarcoma; Dosage 50 (mg/ml)): 19.1 g
- Body weight of the animals, end, First time (S180 sarcoma; Dosage 50 (mg/ml)): 24.9 g
- Inhibition rate, First time (S180 sarcoma; Dosage 50 (mg/ml)): 29.96%
- Weight of the tumor X ± SD, First time (S180 sarcoma; Dosage 50 (mg/ml)): 1.87 ± 0.16 g
- Body weight of the animals, beginning, Second time (S180 sarcoma; Dosage 50 (mg/ml)): 18.3 g
- Body weight of the animals, end, Second time (S180 sarcoma; Dosage 50 (mg/ml)): 25.3 g
- Inhibition rate, Second time (S180 sarcoma; Dosage 50 (mg/ml)): 31.11%
- Weight of the tumor X ± SD, Second time (S180 sarcoma; Dosage 50, ip × 10qd): 1.86 ± 0.28 g
- Body weight of the animals, beginning, First time (S180 sarcoma; Dosage 100 (mg/ml)): 19.0 g
- Body weight of the animals, end, First time (S180 sarcoma; Dosage 100 (mg/ml)): 24.5 g
- Inhibition rate, First time (S180 sarcoma; Dosage 100 (mg/ml)): 43.07%
- Weight of the tumor X ± SD, First time (S180 sarcoma; Dosage 100 (mg/ml)): 1.52 ± 0.15 g
- Body weight of the animals, beginning, Second time (S180 sarcoma; Dosage 100 (mg/ml)): 18.7 g
- Body weight of the animals, end, Second time (S180 sarcoma; Dosage 100 (mg/ml)): 25.5 g
- Inhibition rate, Second time (S180 sarcoma; Dosage 100 (mg/ml)): 40.00%
- Weight of the tumor X ± SD, Second time (S180 sarcoma; Dosage 100, ip × 10qd): 1.62 ± 0.12 g
- Inhibition rate (%) S180 sarcomata (S180 sarcoma; comparison table 43, in vivo): 43.07%
- IC50 (NIH3T3): 20 µM
- IC50 (HepG2): 170 µM
- Death rate (Kunming mice; 50% male 50% female mice, 240 mg/kg): 0
- Death rate (Kunming mice; 50% male 50% female mice, 300 mg/kg): 30
- Death rate (Kunming mice; female mice, 240 mg/kg): 0
- Death rate (Kunming mice; female mice, 300 mg/kg): 40
- Death rate (Kunming mice; male mice, 240 mg/kg): 0
- Death rate (Kunming mice; male mice, 300 mg/kg): 20
- IC50 (PLA-801): 90 µM
- IC50 (Lovo): 10 µM
- IC50 (Hela): 60 µM
- IC50 (Bel-7402): 90 µM
- MTD at 2 weeks (in vivo): > 300 mg/kg
- IC50 (BGC-823): 120 µM
- Body weight of the animals, end, First time (Lewis lung cancer; Dosage 50 (mg/ml)): 25.6 g
- Body weight of the animals, end, Second time (Lewis lung cancer; Dosage 50 (mg/ml)): 25.3 g
- Body weight of the animals, beginning, First time (Lewis lung cancer; Dosage 50, ip × 10qd): 18.8 g
- Inhibition rate, First time (Lewis lung cancer; Dosage 50, ip × 10qd): 31.74%
- Weight of the tumor X ± SD, First time (Lewis lung cancer; Dosage 50, ip × 10qd): 2.00 ± 0.28 g
- Body weight of the animals, beginning, Second time (Lewis lung cancer; Dosage 50, ip × 10qd): 20.1 g
- Inhibition rate, Second time (Lewis lung cancer; Dosage 50, ip × 10qd): 31.69%
- Weight of the tumor X ± SD, Second time (Lewis lung cancer; Dosage 50, ip × 10qd): 1.66 ± 0.17 g
- Body weight of the animals, end, First time (Lewis lung cancer; Dosage 100 (mg/ml)): 25.2 g
- Body weight of the animals, end, Second time (Lewis lung cancer; Dosage 100 (mg/ml)): 25.0 g
- Body weight of the animals, beginning, First time (Lewis lung cancer; Dosage 100, ip × 10qd): 19.3 g
- Inhibition rate, First time (Lewis lung cancer; Dosage 100, ip × 10qd): 41.98%
- Weight of the tumor X ± SD, First time (Lewis lung cancer; Dosage 100, ip × 10qd): 1.70 ± 0.17 g
- Body weight of the animals, beginning, Second time (Lewis lung cancer; Dosage 100, ip × 10qd): 20.1 g
- Inhibition rate, Second time (Lewis lung cancer; Dosage 100, ip × 10qd): 46.91%
- Weight of the tumor X ± SD, Second time (Lewis lung cancer; Dosage 100, ip × 10qd): 1.29 ± 0.13 g
- Inhibition rate (%) Lewis cancer (Lewis lung cancer; comparison table 43, in vivo): 46.91%
- ΔTm (CT-DNA [2]; CT-DNA 15 ug/ml, PE buffer pH 7.6): −1.5 °C
- ΔTm (CT-DNA [2]; CT-DNA thermal denaturation): −1.5 °C
